Measured values as given in US11447504B2, “Macrocyclic chlorine substituted indole derivatives” (Bayer Aktiengesellschaft, priority 2017, dated 2022).
“And” between values parts separate entries of the source, which are not always exact repeats. Identical values can stand only once. Counter-ions that a name gives are not always drawn. Like-named read-outs stand apart in the source and are kept apart here.

Key:
MCL-1 = MCL-1 (Homo sapiens (Human), UniProt Q07820, K194A/K197A/R201A); test: Protein-protein interaction assay MCL-1/Noxa BH3 peptide (MCL-1 Assay, TR-FRET); format: binding; conditions: read-out: MCL-1 Assay IC50 (median)
Protocol: The dose-dependent inhibition by the compounds described in this invention of the interaction between MCL-1 and the BH3 domain of Noxa (both human) was determined using a steady state binding competition assay with time-resolved fluorescence energy transfer (TR-FRET) readout. […] The MBP-MCL-1 was purchased from Beryllium (Bedford, Mass., USA). The expression and purification of this protein construct has been described elsewhere (DOI:10.1371/journal.pone.0125010). The Noxa BH3-derived peptide can be obtained from e.g. Biosyntan (Berlin, Germany).
(§1) For that, 100-fold concentrated DMSO solutions were prepared by serial dilutions (1:3.4) of a 2 mM stock solution in a clear, 384-well microtiter plate (Greiner Bio-One, Frickenhausen, Germany). From there, 50 nl were transferred in a dark test plate (Greiner Bio-One, Frickenhausen, Germany). […] This was followed by a 10-minute incubation step at 22° C. for pre-equilibration of the putative complex between MBP-MCL-1 and the compounds.
(§2) The mixture was incubated in the dark for one hour at 22° C. and then overnight at 4° C.
(§3) The resulting data (ratio) were normalized, taking 0% inhibition as the mean value of control measurements (usually 32 data points) where all reagents were included. In this case 50 nl DMSO were used instead of compounds. […] IC50 values were determined by regression analysis based on a 4 parameter equation (minimum, maximum, IC50, Hill; Y=Max+(Min−Max)/(1+(X/IC50)^Hill) using the Screener Software (Genedata).

BCL-XL = BCL-XL (Homo sapiens (Human), UniProt Q07817); test: Protein-protein interaction assay BCL-XL/Bad BH3 peptide (BCL-XL Assay, TR-FRET); format: binding; conditions: read-out: BCL-XL Assay IC50 (median)
Protocol: Assay 2 Protein-Protein Interaction Assay: BCL-XL/Bad BH3 Peptide (BCL-XL Assay)
The dose-dependent inhibition by the compounds described in this invention of the interaction between BCL-XL and the BH3 domain of Bad (both human) was determined using a steady state binding competition assay with time-resolved fluorescence energy transfer (TR-FRET) readout.
as §1, with “His-BCL-XL” for “MBP-MCL-1”
The mixture was incubated in the dark for one hour at 22° C. and then overnight at 4° C. The formation of BCL-XL/Bad complexes was determined by measuring the resonance energy transfer of the anti-His- Eu-cryptate antibody to the streptavidin-XL665 present in the reaction.
as §3

BCL-2 = BCL-2 (Homo sapiens (Human), UniProt P10415); test: Protein-protein interaction assay BCL-2/Bad BH3 peptide (BCL-2 Assay, TR-FRET); format: binding; conditions: read-out: BCL-2 Assay IC50 (median)
Protocol: The dose-dependent inhibition by the compounds described in this invention of the interaction between BCL-2 and the BH3 domain of Bad (both human) was determined using a steady state binding competition assay with time-resolved fluorescence energy transfer (TR-FRET) readout.
as §1, with “His-BCL-2” for “MBP-MCL-1”
as §2, §3

SUDHL5 [1] = test: Induction of caspase-3/7 activity (Assay 4), SUDHL5; format: cell-based; conditions: SUDHL5 cells
Summary of the method: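 DLBCL cells treated with compounds for 3 hours at 37° C. Caspase-3/7 activity measured by Caspase-Glo 3/7 luminescence, with medium-only background subtracted.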

SUDHL10 [2] = test: Induction of caspase-3/7 activity (Assay 4), SUDHL10; format: cell-based; conditions: SUDHL10 cells
Summary of the method: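 Luminescent Caspase-Glo 3/7 read-out after a 3 h, 37 °C compound exposure of the DLBCL line SUDHL10. Values are background-corrected using medium-only wells.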

SUDHL5 [3] = test: Antiproliferation assay 7, SUDHL5; format: cell-based; conditions: SUDHL5 cells, CellTiter-Glo, read-out: Antiproli SUDHL5 IC50 (median)
Summary of the method: (§4)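 Plate cells in treatment and day 0 reference plates; read day 0 plate with CellTiter-Glo after 10 min; incubate treated plates 72 h at 37° C; read them identically.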

AMO-1 = test: Antiproliferation assay 7, AMO-1; format: cell-based; conditions: AMO-1 cells, CellTiter-Glo, read-out: Antiproli AMO-1 IC50 median
Summary of the method: as §4

HMC-1-8 = test: Antiproliferation assay 7, HMC-1-8; format: cell-based; conditions: HMC-1-8 cells, CellTiter-Glo, read-out: Antiproli HMC-1-8 IC50 median
Summary of the method: as §4

SUDHL5 [4] = test: Induction of cytotoxicity (Assay 6), SUDHL5
SUDHL10 [5] = test: Induction of cytotoxicity (Assay 6), SUDHL10
MV-4-11 = test: Antiproliferation assay 7, MV-4-11; format: cell-based; conditions: Homo sapiens, MV4-11, 72 h, MV-4-11 cells, CellTiter-Glo, read-out: Antiproli MV-4-11 IC50 median
Summary of the method: as §4

SK-BR-3 = test: Antiproliferation assay 7, SK-BR-3; format: cell-based; conditions: Homo sapiens; SK-BR-3 cells, 72 hours, CellTiter-Glo; read-out: Antiproli SK-BR-3 IC50 median
Protocol: (§5) Assessment of the Anti-Proliferative Effect of Compounds in Different Cell Lines
(§6) The impact of compounds on the proliferation of different cell lines was assessed using the CellTiter-Glo® Luminescent Cell Viability reagent from Promega (G7573).
(§7) In parallel, cells were plated in a reference (day 0) plate for time zero determination.
(§8) Rim wells were excluded. The cells were incubated for 72 hours in a humidified incubator at 37° C. The day 0 plate was measured by adding 30 μL/well of CTG solution (CellTiter-Glo® Luminescent Cell Viability reagent, Promega G7573) to time zero wells in the reference plate followed by a 10 minutes incubation and luminescence reading at 0.1 ms. using the PHERAstar FS microplate reader (BMG Labtech).
(§9) After 72 hours incubation, the treated plates were measured in the same way as the day 0 plate mentioned above.

SUDHL10 [6] = test: Antiproliferation assay 7, SUDHL10; format: cell-based; conditions: Homo sapiens, SU-DHL10, 72 h, SUDHL10 cells, CellTiter-Glo, read-out: Antiproli SUDHL10 IC50 (median)
Protocol: as §5, §6, §7, §8, §9

[7] = Homo sapiens, SU-DHL-5, 3 h, Caspase-Glo 3/7, read-out: Caspase SUDHL5 EC50 (median)
[8] = Homo sapiens, SU-DHL10, 3 h, Caspase-Glo 3/7, read-out: Caspase SUDHL10 EC50 (median)
[9] = Homo sapiens, SU-DHL-5, 5 h, read-out: Cytotox SUDHL5 IC50 (median), SUDHL5 cells, 5 hours, CellTiter-Glo
[10] = Homo sapiens, SU-DHL10, 5 h, read-out: Cytotox SUDHL10 IC50 (median), SUDHL10 cells, 5 hours, CellTiter-Glo
[11] = 3 hours, Caspase-Glo 3/7, read-out: Caspase SUDHL5 EC50 (median)
[12] = 3 hours, Caspase-Glo 3/7, read-out: Caspase SUDHL10 EC50 (median)
[13] = read-out: Cytotox SUDHL5 IC50 (median), SUDHL5 cells, 5 hours, CellTiter-Glo
[14] = read-out: Cytotox SUDHL10 IC50 (median), SUDHL10 cells, 5 hours, CellTiter-Glo

BCL-2, sequence (P10415 other isoform, or with tags, fused parts or gaps): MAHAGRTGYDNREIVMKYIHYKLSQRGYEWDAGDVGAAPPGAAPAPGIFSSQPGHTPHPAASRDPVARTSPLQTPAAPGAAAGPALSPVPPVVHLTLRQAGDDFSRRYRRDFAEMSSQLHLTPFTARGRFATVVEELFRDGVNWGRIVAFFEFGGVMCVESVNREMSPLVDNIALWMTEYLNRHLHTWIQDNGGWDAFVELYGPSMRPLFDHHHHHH
BCL-XL, sequence (Q07817 other isoform, or with tags, fused parts or gaps): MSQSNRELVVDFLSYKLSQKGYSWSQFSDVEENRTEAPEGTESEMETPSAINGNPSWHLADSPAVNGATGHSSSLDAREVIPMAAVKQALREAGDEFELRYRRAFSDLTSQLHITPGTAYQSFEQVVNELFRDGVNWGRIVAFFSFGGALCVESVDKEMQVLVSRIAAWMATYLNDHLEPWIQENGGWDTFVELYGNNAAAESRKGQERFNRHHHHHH
MCL-1, sequence (Q07820 whole entry K194A/K197A/R201A, looked up, the tested form may be a part): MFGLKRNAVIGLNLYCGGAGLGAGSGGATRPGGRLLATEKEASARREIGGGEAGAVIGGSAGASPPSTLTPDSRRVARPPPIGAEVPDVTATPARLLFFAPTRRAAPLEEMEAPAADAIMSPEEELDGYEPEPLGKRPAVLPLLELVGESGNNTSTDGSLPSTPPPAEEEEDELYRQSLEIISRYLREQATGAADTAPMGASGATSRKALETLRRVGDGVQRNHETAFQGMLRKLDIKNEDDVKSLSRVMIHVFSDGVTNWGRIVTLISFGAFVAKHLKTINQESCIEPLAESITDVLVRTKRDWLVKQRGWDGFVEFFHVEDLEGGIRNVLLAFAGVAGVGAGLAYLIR

Compound	IC50 (MCL-1) [nM]	IC50 (BCL-XL) [nM]	IC50 (BCL-2)	EC50 (SUDHL5 [1]; [7]) [nM]	EC50 (SUDHL10 [2]; [8]) [nM]	IC50 (SUDHL5 [3]; Homo sapiens, SU-DHL-5, 72 h) [nM]	IC50 (AMO-1; Homo sapiens, AMO1, 72 h) [nM]	IC50 (HMC-1-8; 72 h) [nM]	IC50 (SUDHL5 [4]; [9]) [nM]	IC50 (SUDHL10 [5]; [10]) [nM]	EC50 (SUDHL5 [1]; [11]) [nM]	EC50 (SUDHL10 [2]; [12]) [nM]	IC50 (SUDHL5 [3]; 72 hours) [nM]	IC50 (AMO-1; 72 hours) [nM]	IC50 (HMC-1-8; 72 hours) [nM]	IC50 (SUDHL5 [4]; [13]) [nM]	IC50 (SUDHL10 [5]; [14]) [nM]	IC50 (MV-4-11) [nM]	IC50 (SK-BR-3) [nM]	IC50 (SUDHL10 [6]) [nM]
CCc1c2c(nn1C)N(C)CCCCCn1c(C(=O)O)c(CCCOc3cccc4cc(F)ccc34)c3ccc(Cl)c-2c31 (racemic) [Example 77, (rac)-4-chloro-3-ethyl-7-{3-[(6-fluoronaphthalen-1-yl)oxy]propyl}-2,15-dimethyl-10,11,12,13,14,15-hexahydro-2H-pyrazolo[4′,3′:4,5][1,6]diazacycloundecino[3,2,1-hi]indole-8-carboxylic Acid]	1.1	> 20000	17000 nM	480	490	970	530	3300	450	870										
CCc1c2c(nn1C)N(C)CCCCCn1c(C(=O)O)c(CCCOc3cccc4cc(F)ccc34)c3ccc(Cl)c-2c31 (single isomer, unassigned; enantiomer 2) [Example 79, 4-chloro-3-ethyl-7-{3-[(6-fluoronaphthalen-1-yl)oxy]propyl}-2,15-dimethyl-10,11,12,13,14,15-hexahydro-2H-pyrazolo[4′,3′:4,5][1,6]diazacycloundecino[3,2,1-hi]indole-8-carboxylic acid N-ethylethanamine Salt—Enantiomer 2]		> 20000	> 20000 nM								2800	5400	3800	7400	14000	2200	5100			
Cc1c2c(nn1C)N(C)CCCCCn1c(C(=O)O)c(CCCOc3cccc4cc(F)ccc34)c3ccc(Cl)c-2c31 [Example 76, (−)-4-chloro-7-{3-[(6-fluoronaphthalen-1-yl)oxy]propyl}-2,3,15-trimethyl-10,11,12,13,14,15-hexahydro-2H-pyrazolo[4′,3′:4,5][1,6]diazacycloundecino[3,2,1-hi]indole-8-carboxylic acid-N-ethylethanamine salt]		> 20000	> 20000 nM								3200	6100	4600	8600	13000	3000	7000			
Cc1c2c(nn1C)N(C)CCCCCn1c(C(=O)O)c(CCCOc3cccc4ccccc34)c3ccc(Cl)c-2c31 (single isomer, unassigned) [Example 73, (−)-4-chloro-2,3,15-trimethyl-7-{3-[(naphthalen-1-yl)oxy]propyl}-10,11,12,13,14,15-hexahydro-2H-pyrazolo[4′,3′:4,5][1,6]diazacycloundecino[3,2,1-hi]indole-8-carboxylic acid]	16	> 20000	> 20000 nM								15000	18000		18000	24000	14000	26000			
CCc1c2c(nn1C)COCCCCn1c(C(=O)O)c(CCCOc3cccc4ccccc34)c3ccc(Cl)c-2c31 (racemic) [Example 19, (rac)-4-chloro-3-ethyl-2-methyl-7-[3-(naphthalen-1-yloxy)propyl]-2,10,11,12,13,15-hexahydropyrazolo[4′,3′:9,10][1,6]oxazacycloundecino[8,7,6-hi]indole-8-carboxylic Acid]				340	320	570			480	440								1650	3260	
CCc1c2c(nn1C)COC/C=C\Cn1c(C(=O)O)c(CCCOc3cccc4ccccc34)c3ccc(Cl)c-2c31 (racemic) [Example 18, (rac)-(11 Z)-4-chloro-3-ethyl-2-methyl-7-[3-(naphthalen-1-yloxy)propyl]-2,10,13,15-tetrahydropyrazolo[4′,3′:9,10][1,6]oxazacycloundecino[8,7,6-hi]indole-8-carboxylic Acid]	1.3	> 20000	> 20000 nM and 18700 nM and 20200 nM	1100	1300	1400			1200	1300								4710		
Cc1c2c(nn1C)CN(C)CCCCn1c(C(=O)O)c(CCCOc3cccc4cc(F)ccc34)c3ccc(Cl)c-2c31 (racemic) [Example 30, (rac)-4-chloro-7-{3-[(6-fluoronaphthalen-1-yl)oxy]propyl}-2,3,14-trimethyl-10,11,12,13,14,15-hexahydro-2H-pyrazolo[3′,4′:8,9][1,6]diazacycloundecino[10,11,1-hi]indole-8-carboxylic Acid]	0.92			180	370	170	415	1560	210	340								293		150
